{"source": "patent US20130345262A1", "about": "“METHOD FOR PREVENTION OF STROKE” (BOEHRINGER INGELHEIM INTERNATIONAL GMBH, priority 2012, published 2013)", "origin": "cited, not measured here", "test_system": "patients who have nonvalvular atrial fibrillation", "details": "patients with nonvalvular atrial fibrillation"}
{"smiles": "CC(=O)CC(c1ccccc1)c1c(O)c2ccccc2oc1=O", "note": "(racemic) [warfarin, 3-(α-acetonylbenzyl)4-hydroxycoumarin]", "values": [{"measurement": "reduction of the risk of stroke compared to placebo", "value": "about 64%"}]}
